Assay results from US20180071367A1, “METHODS OF TREATING COGNITIVE IMPAIRMENTS OR DYSFUNCTION” (Oxeia Biopharmaceuticals, Inc., priority 2015, published 2018).
Where no end group is shown, it is not given here. The star is where a group is joined. Octanoyl = CCCCCCCC(=O)*

Columns and labels:
[1] = system: oxidative burst in inflammatory cells; assay: Oxidative burst (ROS) in inflammatory cells from brain tissue after mild brain injury (controlled cortical impact); assay type: in vivo; settings: C57/B6 mice, mild BI by controlled cortical impactor, subcutaneous treatment, leukocytes isolated from brain tissue, DHR 123 flow cytometry, compared to mBI
Experimental: Ghrelin variant administration reduces oxidative burst in inflammatory cells following mild BI. Since no well-accepted animal model exists for concussions, a very small cerebral lesion that closely mimics mild BI is used as a model of mild BI. C57/B6 mice anesthetized with 5% isoflurane in oxygen (1.7 L/min) are given 0.3 mg/kg buprenorphine subcutaneously for analgesia prior to infliction of the mild brain injury. Anesthesia is assessed by paw pinch reflex. After creating a burr hole through the dura with a dental drill, a lesion using a controlled cortical impactor (CCI) is used to create injury 1 mm lateral and posterior to the bregma (5.0 mm/sec at a depth of 1.0 mm).
Animals are separated into three treatment groups: 1) Sham, 2) mild BI, and 3) mild BI plus ghrelin variant. A variety of doses can be tested depending upon the particular ghrelin variant. For example, 1 to 50 μg at one or more time points. As one example, treatment with subcutaneous ghrelin variant: 1 dose of 10 μg following mild BI and additional dose 10 μg 1 hour after. […] The fluorescence is then measured (AFU), higher intensity means greater oxidative burst and, therefore greater concentration or amount of ROS. […] Oxidative burst, which is a marker for ROS, can be measured by respiratory burst using flow cytometry (e.g., FL1 channel with 488-nm laser).

[2] = biological target: GHS-R (Homo sapiens, UniProt Q92847); assay: GHS-R antagonist activity, cell based assay (Table 3); settings: GHS-R antagonist activity in a cell based assay
Sequence of GHS-R (Q92847 whole entry): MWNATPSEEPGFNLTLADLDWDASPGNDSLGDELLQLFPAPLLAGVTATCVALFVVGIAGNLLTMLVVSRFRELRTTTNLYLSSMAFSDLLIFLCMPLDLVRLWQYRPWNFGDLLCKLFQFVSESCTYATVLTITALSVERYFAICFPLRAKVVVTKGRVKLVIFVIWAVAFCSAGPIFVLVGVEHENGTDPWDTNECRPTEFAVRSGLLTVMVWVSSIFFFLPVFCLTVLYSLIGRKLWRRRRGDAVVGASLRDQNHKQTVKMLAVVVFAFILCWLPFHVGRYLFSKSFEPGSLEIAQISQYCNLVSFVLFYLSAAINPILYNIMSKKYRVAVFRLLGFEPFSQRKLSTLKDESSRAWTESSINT

## ghrelin (GSS(Octanoyl)FLSPEHQRVQQRKESKKPPAKLQPR)
[1]
  oxidative burst in inflammatory cells following mBI, quantified by arbitrary fluorescence unit (AFU): reduced the oxidative burst compared to mBI

## CCN(CC)CCCS(=O)(=O)N[C@H](CCc1ccccc1)c1nc(-c2cncn2C)n[nH]1 [Compound 135]
[2]
  Ki: < 100 nM
